{"source": "patent US20100113517A1", "about": "“METHOD FOR THE TREATMENT OF FABRY DISEASE USING PHARMACOLOGICAL CHAPERONES” (AMICUS THERAPEUTICS, INC., priority 2007, published 2010)", "key": {"[1]": {"target": "T1, human mutant α-Gal A (R301Q) (Homo sapiens, UniProt P06280, R301Q)", "T1 construct": "Tissue lysates were prepared by homogenizing about 50 mg tissue in assay buffer; from tissue; host or cells: heart, kidney, skin, liver and spleen of R301Q Tg/KO mice (human transgene, mouse α-Gal A knocked out)", "T1 sequence (P06280 32-429 R301Q)": "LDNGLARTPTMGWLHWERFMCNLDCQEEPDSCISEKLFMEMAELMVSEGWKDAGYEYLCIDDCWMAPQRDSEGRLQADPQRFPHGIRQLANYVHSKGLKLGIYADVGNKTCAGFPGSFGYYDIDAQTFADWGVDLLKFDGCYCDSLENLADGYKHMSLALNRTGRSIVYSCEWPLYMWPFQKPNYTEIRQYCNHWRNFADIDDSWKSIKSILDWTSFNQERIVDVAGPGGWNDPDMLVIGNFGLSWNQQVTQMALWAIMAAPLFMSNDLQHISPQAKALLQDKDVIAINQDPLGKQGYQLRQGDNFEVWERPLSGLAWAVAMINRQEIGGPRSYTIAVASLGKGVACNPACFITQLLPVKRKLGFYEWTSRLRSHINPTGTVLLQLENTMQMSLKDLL", "test": "α-Gal A (GLA) enzyme activity in tissue lysates of R301Q Tg/KO mice", "format": "in vivo", "details": "4 weeks", "source_text": "Transgenic mice that exclusively express human mutant α-Gal A (R301Q) in an α-Gal A knock-out background (TgM/KO mice) were established and evaluated. This Example serves as a biochemical model to study and evaluate pharmacological chaperone therapy for Fabry disease, which is specific for those missense mutations that cause misfolding of α-Gal A.\nMice. Fabry R301Q Tg/KO mice were a gift from Dr. Robert Desnick. Male C57BL/6 mice were purchased from Taconic Farms, Germantown, N.Y. and housed in wire cages at 4 mice per cage. All studies were conducted at 8 weeks of age and conducted under strict adherence to IACUC guidelines.\nDrug Administration. […] After dosing, indicated tissues were harvested and treated as described below.\nEnzyme activity assay. After dosing, indicated tissues were harvested and frozen. Tissue lysates were prepared by homogenizing about 50 mg tissue in assay buffer. 2.5 μL lysate was combined with 17.5 μL of the assay buffer and 50 μL of the respective substrate solution (same as detailed in sections above). Reaction mixtures were then incubated at 37° C. for 1 hr. Afterward, 70 μL stop solution (0.4 M glycine, pH 10.8) was added, and fluorescence was read on a Victor plate reader at 355 nm excitation and 460 nm emission. Enzyme activity in the lysates was background subtracted, and normalized for protein concentration using the MicroBCA Protein Assay Kit (Pierce). A 4-MU standard curve was run (same as detailed in sections above) for conversion of fluorescence data to absolute enzyme activity expressed as nmoles/mg protein/hr or further normalized to % of untreated activity."}, "[2]": {"system": "GL-3", "test": "GL-3 analysis from mouse tissues (LC-MS/MS)", "format": "in vivo", "details": "male R301Q Tg/KO mice, 30 mg/kg daily per os, 4 weeks", "description": "Drug Administration. […] For the GL-3 assay, two groups of 6-7 male […] After dosing, indicated tissues were harvested and treated as described below. GL-3 analysis from mouse tissues. Tissue samples were washed free of blood, weighed and homogenized with a solvent system in a FastPrep® system. Homogenate was then extracted using Solid Phase Extraction on a C18 cartridge. The eluent was evaporated and reconstituted prior to injection onto a LC/MS system. Nine GL3 isoforms were measured using positive ESI-MS/MS. LC separation was achieved on a Zorbax C18 column."}, "[3]": {"details": "including peripheral neuropathy and severe gastrointestinal effects; even at 150 mg/day; cited from earlier work"}, "[4]": {"details": "male R301Q Tg/KO mice, 30 mg/kg daily oral gavage, vs. untreated"}}, "note": "Structures can show the parent of a compound that is named as a salt.", "data": [{"smiles": "OCC1NCC(O)C(O)C1O", "note": "(stereo not shown) [DGJ HCl, migalastat hydrochloride]", "values": [{"measurement": "increase in mutant GLA activity, heart", "setting": "[1]; [4]", "result": "11±0.1 -fold"}, {"measurement": "increase in mutant GLA activity, kidney", "setting": "[1]; [4]", "result": "5.5±0.3 -fold"}, {"measurement": "increase in mutant GLA activity, liver", "setting": "[1]; [4]", "result": "3±0.02 -fold"}, {"measurement": "increase in mutant GLA activity, skin", "setting": "[1]; [4]", "result": "6.2±0.7 -fold"}, {"measurement": "increase in mutant GLA activity, spleen", "setting": "[1]; [4]", "result": "5±0.1 -fold"}, {"measurement": "increase in mutant GLA activity, all treated tissues", "setting": "[1]; male and female R301Q Tg/KO mice, 30 mg/kg/day in drinking water", "result": "comparable increases"}, {"measurement": "GL-3 levels, kidney tissue", "setting": "[2]", "result": "trend towards reduction, but did not reach statistical significance"}, {"measurement": "reduction of GL-3 levels, heart tissue", "setting": "[2]", "result": "1.6 -fold"}, {"measurement": "reduction of GL-3 levels, skin tissue", "setting": "[2]", "result": "2.2 -fold"}]}, {"smiles": "CCCCN1C[C@H](O)[C@@H](O)[C@H](O)[C@H]1CO", "note": "[NB-DNJ]", "values": [{"measurement": "adverse events", "setting": "[3]", "result": "numerous adverse events"}]}]}
